Measured values published in US20250108070A1, “METHOD FOR REPROGRAMMING CD8+ T CELLS TO ENHANCE THEIR THERAPEUTIC POTENTIAL AND APPLICATIONS THEREOF” (INSTITUT PASTEUR, priority 2022, published 2025).
Structures can show the parent of a compound that is named as a salt. Where two headings read alike, the source gives them in different places.

Experiments:
human CD8+ T cells [1] = assay: Screening of GSK3 inhibitors: cytokine polyfunctionality (IFN-γ+TNF-α+) of CD8+ T cells after anti-CD3/anti-CD28 stimulation; format: cell-based; conditions: for Fold change in IFN-γ+ TNF-a+cells (relative to DMSO): 12 hs at optimal dose, washout, 48 hs anti-CD3/anti-CD28, symbols not defined; for IFN-γ+TNF-α+ cells (polyfunctionality) relative to vehicle control: FIG. 12A, in words
Procedure: (§1) FIG. 12. Screening molecules for reprogramming human CD8^+ T cells Total CD8^+ T cells were purified and treated for 12 hs with titrated doses of GSK3 inhibitors or DMSO vehicle control. After drug washout, cells were stimulated for 48 hs with plate-bound anti-CD3/anti-CD28 antibodies (at 1 mg/mL), followed by flow cytometry analyses. A. Upon stimulation, intracellular cytokine and phospho-protein staining was performed, the latter for the detection of phospho-S6 and phospho-AKT proteins (indicative of activation of mTORC1 and mTORC2 pathways, respectively). The fold change in the frequency of IFN-γ^+TNF-α^+ and pS6^+pAKT^+ cells induced by the treatment with each GSK3 inhibitor, relative to DMSO control, was analyzed. […] B. Fold change in the expression of the indicated markers and memory phenotypes induced by anti-CD3/anti-CD28 antibody stimulation relative to unstimulated cells (at least 3 donors per condition). TCM: T central memory; TEM: T effector memory; TTM: T transitional memory; TTE: T terminal effector; TSCM: T stem cell memory.
(§2) For reprogramming of CD8^+ T cells followed by polyclonal stimulation, cells were isolated by negative magnetic bead sorting (Stemcell Technologies). For reprogramming of CD8^+ T cells followed by antigen-specific stimulation, PBMC and magnetically separated CD8^+ T cells and non-CD8^+ T cells were used (REAlease® CD8 MicroBead Kit; Miltenyi Biotech). Then, CD8^+ T cells were treated with a GSK3 inhibitor (6-Bromoindirubin-3′-oxime; BIO; Sigma-Aldrich), at 3 μM, or an equivalent concentration of dimethyl sulfoxide (DMSO) vehicle control, in complete medium, for 12 hs at 37° C., 5% CO2. Non-CD8 cells were left resting during this time in complete medium. CD8^+ T cells were washed with complete medium and stimulated with the peptide pool in presence of non-CD8 T cells.
(§3) In some experiments, cells were culture in RPMI medium without glucose (MP Biomedicals). CD8^+ T cell proliferation was evaluated by CFSE dilution (at 1 μM, Thermo Fisher Scientific). In additional experiments, reprogrammed CD8^+ T cells were stimulated with IL-7 or IL-15 (both at 10 ng/mL; R&D) and cultured for 6 days. In all the cases, cells were cultured at a density of 2×10^6 cells/mL.
(§4) After cultures, cells were stained with the LIVE/DEAD Fixable Aqua Dead Cell Stain kit (Thermo Fisher Scientific), with anti-CD3 Alexa Fluor 700 or APC efluor 780 and anti-CD8 PE Texas Red antibodies, accordingly. […] In some experiments, cells were stained with APC-conjugated dextramers (Immudex), incubated for 15 minutes at room temperature. Additional surface staining panels included anti-HLA-DR Superbright 780, anti-CD38 Superbright 600, anti-PD-1 BV421, anti-LAG-3 APC efluor 780, anti-TIM3 PE Cy7, and anti-TIGIT BV786 antibodies, or anti-CD122 PE and anti-CD215 FITC antibodies. The BD Transcription Factor Buffer Set kit (BD Biosciences) was used for cell fixation and permeabilization. […] Cell acquisition was performed using LSR II or ARIA III flow cytometers (both from BD Biosciences), and data were analyzed with FlowJo v.10 software (BD Biosciences).
(§5) The inventors explored GSK3 inhibitors to expand the array of molecules that could be used for CD8^+ T cell reprogramming. They implemented a screening approach that combined the evaluation of cytokine polyfunctionality of CD8^+ T cells (IFN-γ+TNFα+) vs the activation of mTORC1 and mTORC2 pathways (pS6+pAKT+) upon treatment with the GSK3 inhibitors and subsequent polyclonal stimulation.

[2] = test system: mTORC1 and mTORC2 pathways; assay: Screening of GSK3 inhibitors: phospho-S6 / phospho-AKT staining (activation of mTORC1 and mTORC2 pathways); format: cell-based, human; conditions: for Fold change in pS6+pAKT+cells (relative to DMSO): 12 hs at optimal dose, washout, 48 hs anti-CD3/anti-CD28, symbols not defined; for frequency of pS6+pAKT+ cells / activation of mTORC pathway: FIG. 12A, in words
Procedure: as §1, §2, §3, §4, §5

human CD8+ T cells [3] = assay: Screening of GSK3 inhibitors: markers and memory phenotypes by flow cytometry; format: cell-based
Procedure: as §1, §2, §3, §4

GSK3 [4] = conditions: cited from earlier work; for IC50: GSK3 inhibitor, review Front. Mol. Neurosci. 2011
GSK3 [5] = conditions: reference 42; cited from earlier work
[6] = test system: CD8+ T cells from people without HIV; assay: In vitro reprogramming of bulk CD8+ T cells, phenotype without further stimulation; format: cell-based, human; conditions: BIO and TWS119 in parallel, 3 μM, 12 hs
Procedure: FIG. 1. Induction of stem-like CD8^+ T cells with high survival capacity and polyfunctionality by in vitro reprogramming. A. CD8^+ T cells from people without HIV were incubated with medium, vehicle control, or a GSK3 inhibitor, for 12 hs and the phenotype was evaluated by flow cytometry. A representative donor from a total of 4 is shown. B. Frequencies of CD8^+ T cell subpopulations after each treatment. C. Fold change of CD8^+ T cell subpopulations after treatment with vehicle control or a GSK3 inhibitor, relative to medium alone condition (n=4). D. Expression of TCF-1 in CD8^+ T cell subpopulations (n=4). E. The expression of the indicated markers in cells pre-treated with vehicle control or a GSK3 inhibitor was evaluated by flow cytometry. The fold change in the expression induced by 48 hs anti-CD3/CD28 stimulation, relative to unstimulated cells, is shown (n=5). F. Left: Flow cytometry analysis of dead cells (Aqua Live/Dead^+) among total and T-bet+CD8^+ T cells. Right: Fold change in dead CD8^+ T cells induced by anti-CD3/CD28 stimulation, relative to the unstimulated condition (n=5). G. Frequencies of granzyme B^+, TL-2^+, IFN-γ^+, and TNF-α^+CD8^+ T cells after anti-CD3/CD28 stimulation. H. Expression of 1 to 4 functions in CD8^+ T cells after anti-CD3/CD28 stimulation (n=5). I. After reprogramming with the GSK3 inhibitor, CD8^+ T cells were stimulated for 48 hs with anti-CD3/CD28, followed by wash and resting for 5 days. Then, cells were restimulated for another 48 hs with anti-CD3/CD28. Left: Flow cytometry analysis of proliferating (CFSE dilution) CD8^+ T cells. Right: Frequencies of CD8^+ T cells with 0, 1-3 or ≥4 cell divisions (n=9). J. Frequency of the total HCMV pp65-specific CD8^+ T cell response (IFN-γ^+ or CD107a^+ or TNF-α^+), after vehicle control or GSK3 inhibitor treatment, followed by HCMV pp65 peptides stimulation for 6 hs (n=6). K. Frequencies of CD8^+ T cell subpopulations among HCMV pp65-specific CD8^+ T cells (n=6). L. Expression of IFN-γ, CD107a, and TNF-α in HCMV pp65-specific CD8^+ T cells (n=6). M. Frequency of the total HCMV pp65-specific CD8^+ T cell response after HCMV pp65 peptides stimulation for 6 days (n=6). *P<0.05; **P≤0.01. NS: Not statistically significant. TSCM: Stem cell memory; TCM: Central memory; TTM: Transitional memory; TEM: Effector memory; TTE: Terminal effector.
FIG. 2. A. Flow cytometry gating strategy used to identify CD8^+ T cell subpopulations: Naïve, Stem cell memory (TSCM), Central memory (TCM), Transitional memory (TTM), Effector memory (TEM), and Terminal effector (TTE). B. Expression of CCR7, CD27 and TCF-1 in total CD8^+ T cells after treatment with vehicle control, or the GSK3 inhibitors BIO or TWS119, for 12 hs. The median fluorescence intensity of each marker is depicted. C. Fold change in TSCM, TCM and TEM cells induced by BIO or TWS119, relative to vehicle control (n=3 people without HIV). D. Fold change in T-bet^+ cells among TSCM and TCM induced by anti-CD3/CD28 stimulation, relative to vehicle control, in cells previously treated with vehicle control, BIO or TWS119 (n=3). E. Fold change in T-bet^+ cells among naïve/TSCM induced by anti-CD3/CD28 stimulation (0.2 and 1 μg/mL), relative to unstimulated cells, previous treatment with vehicle control or the GSK3 inhibitor (n=3). F. Fold change in T-bet^+ cells among each CD8^+ T cell subpopulation induced by anti-CD3/CD28+ICAM-1 stimulation, relative to unstimulated cells (n=5). G. Frequency of IL-2^+TNF-α^+ cells among each CD8^+ T cell subpopulation after anti-CD3/CD28+ICAM-1 stimulation (n=5). H. Correlation between the frequency of PD-1^+LAG-3^+TIM3^+TIGIT^+CD8^+ T cells and the proportion of CD8^+ T cells with ≥4 cell divisions after restimulation (n=6). I. After reprogramming with the GSK3 inhibitor, CD8^+ T cells were left unstimulated, stimulated once for 48 hs with anti-CD3/CD28, or stimulated twice with anti-CD3/CD28. The expression of T-bet in TCM and TTM cells is shown (n=5). *P<0.05. […]

[7] = 12 hs at optimal dose, anti-CD3/anti-CD28 stimulation relative to unstimulated cells, symbols not defined

## CN1CCN(S(=O)(=O)c2ccc(-c3cnc(N)c(C(=O)Nc4cccnc4)n3)cc2)CC1 [AZD 2858]
Human CD8+ T cells [1]
  Fold change in IFN-γ+ TNF-a+cells (relative to DMSO): + +
[2]
  Fold change in pS6+pAKT+cells (relative to DMSO): + +

## O=C1Cc2c([nH]c3ccc([N+](=O)[O-])cc23)-c2ccccc2N1 [Alsterpaullone]
Human CD8+ T cells [1]
  Fold change in IFN-γ+ TNF-a+cells (relative to DMSO): + +
  IFN-γ+TNF-α+ cells (polyfunctionality) relative to vehicle control: increased
Human CD8+ T cells [3]; [7]
  Fold change in % HLA+ CD38+: − −
[2]
  Fold change in pS6+pAKT+cells (relative to DMSO): + +
  frequency of pS6+pAKT+ cells / activation of mTORC pathway: activation of mTORC pathway

## CN(C)CCCn1cc(C2=C(c3c[nH]c4ccccc34)C(=O)NC2=O)c2ccccc21 [GF 109203X]
Human CD8+ T cells [3]; [7]
  Fold change in % HLA+ CD38+: − −

## NC1=N[C@H]2c3c([nH]c(Br)c3Br)C(=O)N3CCC[C@]23N1 [Dibromocantharelline]
GSK3 [4]
  IC50: 3 µM

## [Zn+2] [Zinc]
GSK3 [4]
  IC50: 15 µM

## COc1ccc(CNC(=O)Nc2ncc([N+](=O)[O-])s2)cc1 [AR-A014418]
[2]
  frequency of pS6+pAKT+ cells / activation of mTORC pathway: decreased

## COc1ccc(-c2ocnc2C(=O)NCCCn2cncn2)cc1Cl [PF-04802367]
Human CD8+ T cells [1]
  Fold change in IFN-γ+ TNF-a+cells (relative to DMSO): + +
  IFN-γ+TNF-α+ cells (polyfunctionality) relative to vehicle control: increased
[2]
  Fold change in pS6+pAKT+cells (relative to DMSO): + +
  frequency of pS6+pAKT+ cells / activation of mTORC pathway: activation of mTORC pathway

## CC(=O)ON=C1C(=C2C(=O)Nc3cc(Br)ccc32)Nc2ccccc21 [Bio-acetoxime, 6-bromoindirubin-3′-acetoxime]
Human CD8+ T cells [1]
  Fold change in IFN-γ+ TNF-a+cells (relative to DMSO): + +
  IFN-γ+TNF-α+ cells (polyfunctionality) relative to vehicle control: promoted
Human CD8+ T cells [3]; FIG. 12B, in words
  CD127+ T-bet− phenotype: preserved
  acquisition of T-bet, HLA-DR and CD38, PD-1 and LAG-3: restrained
  phenotype / profile promoted in CD8+ T cells: promoted a less-differentiated phenotype
[2]
  frequency of pS6+pAKT+ cells / activation of mTORC pathway: lower frequency

## CN[C@@H]1C[C@H]2O[C@@](C)([C@@H]1OC)n1c3ccccc3c3c4c(c5c6ccccc6n2c5c31)C(=O)NC4 [Staurosporine]
Human CD8+ T cells [3]
  Fold change in % CD127+ T-bet−: +
  Fold change in % HLA+ CD38+: −
  Fold change in % LAG3+ PD1+: −
  Fold change in % TTM: +

## O=C([O-])[O-].[Li+].[Li+] [Lithium carbonate]
Human CD8+ T cells [3]; [7]
  Fold change in % HLA+ CD38+: + +

## CN1CC[C@H](c2c(O)cc(O)c3c(=O)cc(-c4ccccc4Cl)oc23)[C@H](O)C1 [Flavopiridol hydrochloride hydrate]
Human CD8+ T cells [3]; [7]
  Fold change in % HLA+ CD38+: − −
  Fold change in % Naive-TSCM: − −
  Fold change in % TCM: − −

## O[C@]12C=C(c3nccc4c3[nH]c3ccccc34)[C@@H]3CCN(CCCC/C=C\CC1)C[C@@]31C[C@@H]3/C=C\CCCCN3[C@H]12 [Manzamine A]
GSK3 [4]
  IC50: 1.5 µM

## Nc1cccc(-c2cc3c(Oc4cccc(O)c4)ncnc3[nH]2)c1 [TWS119, 3-[[6-(3-aminophenyl)-7H-pyrrolo[2,3-d]pyrimidin-4-yl]oxy]phenol]
GSK3 [5]
  Wnt/β-catenin/TCF-1 pathway: induce the activation
[6]; FIG. 2B
  CCR7, CD27, and TCF-1: induced
[6]; FIG. 2C
  TEM cells: decrease
  TSCM and TCM cells: increase
GSK3 [4]
  IC50: 0.0006 to 0.007 µM
  selectivity of inhibition of GSK3: highly selective inhibitors

## OCCCNc1cc(-c2ccnc(Nc3cccc(Cl)c3)n2)ccn1 [CGP 60474]
Human CD8+ T cells [3]; [7]
  Fold change in % HLA+ CD38+: − −

## O=c1sn(-c2cccc3ccccc23)c(=O)n1Cc1ccccc1 [Tideglusib (NP031112)]
Human CD8+ T cells [3]; FIG. 12B, in words
  frequencies of CD127− T-bet+ cells, and LAG-3+ PD-1+ cells: higher frequencies
  phenotype / profile promoted in CD8+ T cells: promoted an effector-like profile

## COc1ccc2c(c1)/C(=C/c1cnc[nH]1)C(=O)N2 [SU 9516]
Human CD8+ T cells [1]
  Fold change in IFN-γ+ TNF-a+cells (relative to DMSO): + +
  IFN-γ+TNF-α+ cells (polyfunctionality) relative to vehicle control: increased
Human CD8+ T cells [3]; [7]
  Fold change in % HLA+ CD38+: + +
[2]
  Fold change in pS6+pAKT+cells (relative to DMSO): + +
  frequency of pS6+pAKT+ cells / activation of mTORC pathway: activation of mTORC pathway
